Here are results for 27 compounds from US10047105B2, “Gyrase inhibitors” (Merck Sharp & Dohme Corp., priority 2009, dated 2018).

The structures appear in SMILES notation. In brackets after ≈: the same amount, converted by molar mass.

One assay deals with S. aureus ATCC 13709. Nature of the assay: MIC, antibacterial potency, S. aureus. The assay is classed as cell-based.
A further assay has as its system S. pneumoniae ATCC 51916. Nature of the assay: MIC, S. pneumoniae. The assay is classed as cell-based.
The mark [1] stands for this setting: S. pneumoniae (Spn52), in µg/mL.

As to `CCc1[nH]c2nc(Sc3cnc4nccnc4c3)nc(N3CCCC(CO)C3)c2c1Cl` (stereo not drawn) [700,814], in the assay on S. aureus ATCC 13709 (S. aureus (SA), in µg/mL), the “MIC, SA” value is listed as 2. Also, in the assay on S. pneumoniae ATCC 51916 (setting [1]), the “MIC Spn52” value is listed as 4.
In turn, `CCc1[nH]c2nc(Sc3cnc4nccnc4c3)nc(N3CC(NC)C3)c2c1Cl` [700,714] displayed an MIC, SA in the assay with S. aureus ATCC 13709 (S. aureus) of 2 µg/mL (≈ 4.68 µM). The MIC Spn52 against S. pneumoniae ATCC 51916 (S. pneumoniae) was 4 µg/mL (≈ 9.37 µM).
The matching figures for `CCc1[nH]c2nc(Sc3cnc4nccnc4c3)nc(N3CC(NC(=N)N)C3)c2c1Cl.O=C(O)C(F)(F)F` [700,503]: 16 µg/mL and more than 64 µg/mL.
The corresponding values for `CCc1[nH]c2nc(Sc3cnc4nccnc4c3)nc(N3CC(NC(=O)C4CC4)C3)c2c1Cl` [700,440] are not above 0.5 µg/mL and not above 0.5 µg/mL.
The corresponding values for `CCc1[nH]c2nc(Sc3cnc4nccnc4c3)nc(N3CCC4(CCCN4)C3)c2c1Cl` (stereo not drawn) [700,547] are 4 µg/mL (≈ 8.57 µM) and 4 µg/mL (≈ 8.57 µM).
For `CCOc1nc(Sc2cc(C(=O)NC3CC3)ccn2)nc2[nH]c(CC)c(Cl)c12` [700,306], in the assay with S. aureus ATCC 13709 (S. aureus), the MIC, SA was more than 64 µg/mL. In the assay on S. pneumoniae ATCC 51916 (S. pneumoniae), this compound displayed an MIC Spn52 of more than 64 µg/mL.
Turning to `CCc1[nH]c2nc(Sc3cnc4nccnc4c3)nc(N3CC(N4CCCCC4)C3)c2c1Cl.O=C(O)C(F)(F)F.O=C(O)C(F)(F)F` [700,605], in the assay on S. aureus ATCC 13709 (S. aureus), the MIC, SA came to 4 µg/mL. In the assay on S. pneumoniae ATCC 51916 (S. pneumoniae), this compound came in with an MIC Spn52 of 8 µg/mL.
The matching figures for `CCc1[nH]c2nc(Sc3cnc4nccnc4c3)nc(N3CC(CNC(=N)N)C3)c2c1Cl.O=C(O)C(F)(F)F` [700,502]: 16 µg/mL and more than 64 µg/mL.
The matching figures for `CCc1[nH]c2nc(Cn3cncn3)nc(N3CCN(C(C)=O)CC3)c2c1Br` [700,374]: more than 64 µg/mL and more than 64 µg/mL.
The corresponding values for `CCc1[nH]c2nc(Sc3cnc4nccnc4c3)nc(N3CC[C@@H](O)C3)c2c1Cl` [700,428] are not above 0.5 µg/mL and 1 µg/mL (≈ 2.34 µM).
Turning to `CCc1[nH]c2nc(Sc3cnc4cccnc4c3)nc(N3C[C@H](N)C[C@@H]3CO)c2c1Cl` [700,870], in the assay on S. aureus ATCC 13709 (S. aureus (SA), in µg/mL), the “MIC, SA” value turned out to be 64. Also, the “MIC Spn52” value against S. pneumoniae ATCC 51916 (setting [1]) worked out at 64.
As to `CCc1[nH]c2nc(Sc3cnc4ccoc4c3)nc(N3CC4CNC4C3)c2c1Br.O=C(O)C(F)(F)F` (stereo not drawn) [700,680], the MIC, SA with S. aureus ATCC 13709 (S. aureus) was determined as 16 µg/mL. The compound further gave an MIC Spn52 in the assay on S. pneumoniae ATCC 51916 (S. pneumoniae) of 64 µg/mL.
Consider `CCc1[nH]c2nc(Sc3ccc4cc5c(=O)[nH][nH]c(=O)c5nc4c3)nc(N3CC[C@@H](N)C3)c2c1Cl` [700,861], for which, in the assay with S. aureus ATCC 13709 (S. aureus (SA), in µg/mL), the “MIC, SA” value was 16. Besides, the “MIC Spn52” value in the assay with S. pneumoniae ATCC 51916 (setting [1]) is listed as more than 64.
With `CCc1[nH]c2nc(Sc3nc(-c4nnc(C)o4)cs3)nc(N3CC(O)C3)c2c1Cl.Cl.Cl.Cl` [700,387], the MIC, SA against S. aureus ATCC 13709 (S. aureus) was 16 µg/mL. The compound also registered an MIC Spn52 with S. pneumoniae ATCC 51916 (S. pneumoniae) of more than 64 µg/mL.
The matching figures for `CCc1[nH]c2nc(Sc3ccc4c(N)ncnc4c3)nc(Oc3cncc(OC)c3)c2c1Cl` [700,687]: more than 64 µg/mL and more than 64 µg/mL.
In the case of `CCc1[nH]c2nc(Sc3ccc4cc5c(nc4c3)CCNC5)nc(N3CC[C@@H](N)C3)c2c1Cl` [700,841], the “MIC, SA” value in the assay on S. aureus ATCC 13709 (S. aureus (SA), in µg/mL) turned out to be 4. The “MIC Spn52” value with S. pneumoniae ATCC 51916 (setting [1]) was 8.
In the assay with S. aureus ATCC 13709 (S. aureus), `CCc1[nH]c2nc(Oc3ccc4nccnc4c3)nc(Oc3ccc4nccnc4c3)c2c1Cl` [700,613] returned an MIC, SA not above 0.5 µg/mL. Further, in the assay on S. pneumoniae ATCC 51916 (S. pneumoniae), the MIC Spn52 came out at 4 µg/mL (≈ 8.51 µM).
The matching figures for `CCOc1nc(Sc2cnc3cccnc3n2)nc2[nH]c(CC)c(Br)c12` [700,297]: not above 0.5 µg/mL and 2 µg/mL (≈ 4.64 µM).
In the case of `CCc1[nH]c2nc(Sc3cc(F)cc4nc(C)nc(N)c34)nc(N3CC[C@@H](N)C3)c2c1Cl` [700,864], in the assay on S. aureus ATCC 13709 (S. aureus (SA), in µg/mL), the “MIC, SA” value was determined as 4. In the assay on S. pneumoniae ATCC 51916 (setting [1]), the “MIC Spn52” value was determined as 4.
Regarding `CCc1[nH]c2nc(Sc3cnc4cccnc4c3)nc(N3CCC(c4cccnc4)C3)c2c1Cl` (stereo not drawn) [700,871], the “MIC, SA” value against S. aureus ATCC 13709 (S. aureus (SA), in µg/mL) was “<=0.5”. Moreover, in the assay with S. pneumoniae ATCC 51916 (setting [1]), the “MIC Spn52” value came out at 2.
On to `CCc1[nH]c2nc(Sc3cnc4nccnc4c3)nc(NCCN3CCCC3)c2c1Cl.O=C(O)C(F)(F)F` [700,510], for which the MIC, SA in the assay with S. aureus ATCC 13709 (S. aureus) was more than 64 µg/mL. The MIC Spn52 in the assay on S. pneumoniae ATCC 51916 (S. pneumoniae) was more than 64 µg/mL.
`CCc1[nH]c2nc(Sc3cc(-n4cccn4)nc(C)n3)nc(NCC3CCCO3)c2c1Cl` (stereo not drawn) [700,373] displayed an MIC, SA against S. aureus ATCC 13709 (S. aureus) of more than 64 µg/mL. The MIC Spn52 in the assay on S. pneumoniae ATCC 51916 (S. pneumoniae) was more than 64 µg/mL.
With `CCc1[nH]c2nc(Sc3cnc4nccnc4c3)nc(N3CCC(N)C3)c2c1Cl` (stereo not drawn) [700,540], the MIC, SA against S. aureus ATCC 13709 (S. aureus) is 1 µg/mL (≈ 2.34 µM). Moreover, the MIC Spn52 against S. pneumoniae ATCC 51916 (S. pneumoniae) turned out to be 2 µg/mL (≈ 4.68 µM).
`CCc1[nH]c2nc(Sc3cnc4nccnc4c3)nc(N3CCC(CO)C3)c2c1Cl` (stereo not drawn) [700,830]: the “MIC, SA” value in the assay with S. aureus ATCC 13709 (S. aureus (SA), in µg/mL) is recorded as “<=0.5”. For the same compound, the “MIC Spn52” value in the assay with S. pneumoniae ATCC 51916 (setting [1]) was found to be 2.
Turning to `CCc1[nH]c2nc(Sc3cc(=O)[nH]c(=O)[nH]3)nc(N3CC(O)C3)c2c1Cl` [700,359], the MIC, SA against S. aureus ATCC 13709 (S. aureus) is 2 µg/mL (≈ 5.07 µM). Also, the MIC Spn52 with S. pneumoniae ATCC 51916 (S. pneumoniae) is 8 µg/mL (≈ 20.3 µM).
The matching figures for `CCc1[nH]c2nc(Sc3cnc(N4CC(O)C4)c(C#N)c3)nc(N3CCC(N)C3)c2c1Cl` (stereo not drawn) [700,590]: 4 µg/mL (≈ 8.49 µM) and 16 µg/mL (≈ 34 µM).
In turn, `CCc1nc2c(N(C)C)nc(Sc3cccc(C(=O)O)c3)nc2[nH]1.O=C(O)C(F)(F)F` [700,220] came in with an MIC, SA with S. aureus ATCC 13709 (S. aureus) of more than 64 µg/mL. The same compound returned an MIC Spn52 against S. pneumoniae ATCC 51916 (S. pneumoniae) of 64 µg/mL.
